Experimental findings from article PMC9000482, “Inhibition of Aldose Reductase by Ginsenoside Derivatives via a Specific Structure Activity Relationship with Kinetics Mechanism and Molecular Docking Study” (Molecules, 2022) are described below.

In test [1] the target is T1, rat lens aldose reductase (RLAR) (Rattus norvegicus, UniProt P07943).
T1 construct: from tissue; host or cells: lens of Sprague-Dawley rats (supernatant of homogenate)
The test can be described thus: RLAR inhibitory activity assay (rat lens homogenate, DL-glyceraldehyde substrate). It is filed as biochemical. The note with it: for RLAR inhibitory activity (in words): at the concentrations tested; for IC50: rat lens homogenate, substrate DL-glyceraldehyde, mean ± S.E.M. of triplicate experiments, read-out: RLAR IC50. As for the experimental part:
A rat lens homogenate was prepared with minor modifications according to the method reported by Hayman et al.. Briefly, the lenses were removed from the eyes of Sprague-Dawley rats weighing 250–280 g. They were homogenized in sodium phosphate buffer (pH 6.2) that was prepared with dibasic sodium phosphate (Na2HPO4∙H2O, 0.66 g) and monobasic sodium phosphate (NaH2PO4∙H2O, 1.27 g) in 100 mL of double-distilled H2O. The homogenate was clarified by centrifugation at 10,000 rpm at 4 °C for 20 min and the resultant supernatant was frozen until use. A crude AR homogenate with a specific activity of 6.5 U/mg was used in all enzyme inhibition evaluations. The reaction solution consisted of 620 µL of 100 mM sodium phosphate buffer (pH 6.2), 90 µL of AR homogenate, 90 µL of 1.6 mM NADPH, and 9 µL of sample, while the substrate included 90 µL of 50 mM DL-glyceraldehyde. […] AR activity was determined by measuring the decrease in NADPH absorption at 340 nm over a 4 min period on an Ultrospec®2100pro UV/Visible spectrophotometer. SWIFT II Applications software (Amersham Biosciences, NJ, USA) was used for all data analyses. The inhibition percentage (%) was calculated as follows in Equation (1):[1 − (∆Asample/min − ∆Ablank/min)/(∆Acontrol/min − ∆Ablank/min)] × 100(1) in which ∆Asample/min represents the test sample and substrate’s reduction in absorbance over 4 min, and ∆A control/min represents the same reduction in absorbance, but with 100% DMSO (dimethyl sulfoxide) rather than the test sample.

Test [2] addresses T2, human recombinant aldose reductase (HRAR) (Homo sapiens, UniProt P15121).
T2 construct: purchased Wako Chemicals (Osaka, Japan)
Description: HRAR inhibition assay (DL-glyceraldehyde substrate). It is filed as biochemical. As for the experimental part: HRAR inhibition was studied according to Nishimura et al.. AR action was studied by measuring the reduction in NADPH absorption at 340 nm over a period of 1 min on a UV/visible spectrophotometer (Ultrospec®2100pro, Biochrom, Holliston, MA, USA). For HRAR inhibition, the HRAR enzyme (0.4 units), was used in all enzyme inhibition evaluations. […] The inhibition percentage (%) was measured as designated in the RLAR assay. The DA sample/min value characterizes the decrease in absorbance for 1 min with the test samples and substrate. The ability of each sample to inhibit HRAR was observed as an IC50 value (µM) and measured from the log-dose inhibition curve.

Setting [3] is: substrate DL-glyceraldehyde, mean ± S.E.M. of triplicate experiments, read-out: HRAR IC50.

Molecules are shown by their SMILES. Read-outs that look alike come from different tables or passages of the source. A value given as a limit tells only on which side of the number the result lay.

The IC50 is the point on the concentration scale where inhibition reaches its midpoint. Take `CC(C)=CCC[C@](C)(O[C@@H]1O[C@H](CO[C@@H]2OC[C@H](O[C@@H]3OC[C@@H](O)[C@H](O)[C@H]3O)[C@H](O)[C@H]2O)[C@@H](O)[C@H](O)[C@H]1O)[C@H]1CC[C@]2(C)[C@@H]1[C@H](O)C[C@@H]1[C@@]3(C)CC[C@H](O[C@@H]4O[C@H](CO)[C@@H](O)[C@H](O)[C@H]4O[C@@H]4O[C@H](CO)[C@@H](O)[C@H](O)[C@H]4O)C(C)(C)[C@@H]3CC[C@]12C` [Ginsenoside Ra1]: in test [1], the “RLAR inhibitory activity (in words)” value was “inactive” and the IC50 is more than 200 µM. Further, the IC50 in test [2] (setting [3]) is 75.6 ± 4.33 µM.
With `CC(C)=CCC[C@](C)(O[C@@H]1O[C@H](CO[C@@H]2O[C@@H](CO)[C@H](O)[C@H]2O[C@@H]2OC[C@@H](O)[C@H](O)[C@H]2O)[C@@H](O)[C@H](O)[C@H]1O)[C@H]1CC[C@]2(C)[C@@H]1[C@H](O)C[C@@H]1[C@@]3(C)CC[C@H](O[C@@H]4O[C@H](CO)[C@@H](O)[C@H](O)[C@H]4O[C@@H]4O[C@H](CO)[C@@H](O)[C@H](O)[C@H]4O)C(C)(C)[C@@H]3CC[C@]12C` [Ginsenoside Ra2], the IC50 in test [1] worked out at 178 ± 7.39 µM; in test [2] (setting [3]), 82.43 ± 0.44 µM.
As to `CC(C)=CCC[C@](C)(O[C@@H]1O[C@H](CO[C@@H]2O[C@H](CO)[C@@H](O)[C@H](O)[C@H]2O)[C@@H](O)[C@H](O)[C@H]1O)[C@H]1CC[C@]2(C)[C@@H]1[C@H](O)C[C@@H]1[C@@]3(C)CC[C@H](O[C@@H]4O[C@H](CO)[C@@H](O)[C@H](O)[C@H]4O[C@@H]4O[C@H](CO)[C@@H](O)[C@H](O)[C@H]4O)C(C)(C)[C@@H]3CC[C@]12C` [Ginsenoside Rb1], the IC50 stood at 103 ± 7.45 µM in test [1] and 93.3 ± 5.76 µM in test [2] (setting [3]).
On to `CC(C)=CCC[C@](C)(O[C@@H]1O[C@H](CO[C@@H]2OC[C@H](O)[C@H](O)[C@H]2O)[C@@H](O)[C@H](O)[C@H]1O)[C@H]1CC[C@]2(C)[C@@H]1[C@H](O)C[C@@H]1[C@@]3(C)CC[C@H](O[C@@H]4O[C@H](CO)[C@@H](O)[C@H](O)[C@H]4O[C@@H]4O[C@H](CO)[C@@H](O)[C@H](O)[C@H]4O)C(C)(C)[C@@H]3CC[C@]12C` [Ginsenoside Rb2], for which the IC50 was 121 ± 3.43 µM in test [1] and more than 100 µM in test [2] (setting [3]). The “HRAR inhibitory activity (in words)” value in test [2] (at the concentrations tested) was “inactive”.
Turning to `CC(C)=CCC[C@](C)(O[C@@H]1O[C@H](CO[C@@H]2OC[C@@H](O)[C@H](O)[C@H]2O)[C@@H](O)[C@H](O)[C@H]1O)[C@H]1CC[C@]2(C)[C@@H]1[C@H](O)C[C@@H]1[C@@]3(C)CC[C@H](O[C@@H]4O[C@H](CO)[C@@H](O)[C@H](O)[C@H]4O[C@@H]4O[C@H](CO)[C@@H](O)[C@H](O)[C@H]4O)C(C)(C)[C@@H]3CC[C@]12C` [Ginsenoside Rb3], the IC50 in test [1] stood at 117 ± 6.89 µM; in test [2] (setting [3]) it was 79 ± 4.55 µM.
As for `CC(C)=CCC[C@](C)(O[C@@H]1O[C@H](CO[C@@H]2O[C@@H](CO)[C@H](O)[C@H]2O)[C@@H](O)[C@H](O)[C@H]1O)[C@H]1CC[C@]2(C)[C@@H]1[C@H](O)C[C@@H]1[C@@]3(C)CC[C@H](O[C@@H]4O[C@H](CO)[C@@H](O)[C@H](O)[C@H]4O[C@@H]4O[C@H](CO)[C@@H](O)[C@H](O)[C@H]4O)C(C)(C)[C@@H]3CC[C@]12C` [Ginsenoside Rc], in test [1], the “RLAR inhibitory activity (in words)” value is “inactive” and the IC50 is more than 200 µM. In test [2] (setting [3]), the IC50 worked out at 56.6 ± 2.19 µM.
With `CC(C)=CCC[C@](C)(O[C@@H]1O[C@H](CO)[C@@H](O)[C@H](O)[C@H]1O)[C@H]1CC[C@]2(C)[C@@H]1[C@H](O)C[C@@H]1[C@@]3(C)CC[C@H](O[C@@H]4O[C@H](CO)[C@@H](O)[C@H](O)[C@H]4O[C@@H]4O[C@H](CO)[C@@H](O)[C@H](O)[C@H]4O)C(C)(C)[C@@H]3CC[C@]12C` [Ginsenoside Rd], the IC50 was 89.6 ± 2.99 µM in test [1] and 37.5 ± 1.33 µM in test [2] (setting [3]).
On to `O=C(O)Cn1c(=O)n(Cc2ccc(Br)cc2F)c(=O)c2ccc(Cl)cc21` [Zenaresta, Zenarestat, reference compound], for which the IC50 in test [2] was determined as 0.69 ± 0.11 µM.
